The source of these data is patent US20220289680A1, “METHODS FOR MAKING DIMERIC NAPHTHALIMIDES AND SOLID STATE FORMS OF THE SAME” (Alucent Biomedical, Inc., priority 2018, published 2022).

Holding throughout (assay type): physicochemical
Data set [1] is described as follows: Post-DVS X-ray powder diffraction analysis (solid form stability). The note with it: after DVS cycling 5%-95%-5% RH. The source says: (§1) The Rigaku Smart-Lab X-ray diffraction system was configured for reflection Bragg-Brentano geometry using a line source X-ray beam. The x-ray source was a Cu Long Fine Focus tube that was operated at 40 kV and 44 ma. That source provided an incident beam profile (at the sample) that changed from a narrow line at high angles to a broad rectangle at low angles. Beam conditioning slits were used on the X-ray source to ensure that the maximum beam size is less than 10 mm, both along the line and normal to the line. The Rigaku Smart-Lab was operated to give peak widths of 0.1 degrees two-theta or less. The axial divergence of the X-ray beam was controlled by 5.0-degree Soller slits in both the incident and diffracted beam paths.
(§2) Powder samples were prepared in a low-background Si holder using light manual pressure to keep the sample surfaces flat and level with the reference surface of the sample holder. Each sample was analyzed from 2 to 40 degrees two-theta using a continuous scan of 6 degrees two-theta per minute, with an effective step size of 0.02 degrees two-theta.
(§3) DVS analysis was carried out using a TA Instruments Q5000 Dynamic Vapor Sorption analyzer. The instrument was calibrated with standard weights and a sodium bromide standard for humidity. Approximately 10-25 mg of sample was loaded into a metal-coated quartz pan for analysis. The sample was analyzed at 25° C. with a maximum equilibration time of one hour in 10% relative humidity (RH) steps from 5% to 95% RH (adsorption cycle) and from 95% to 5% RH (desorption cycle). The movement from one step to the next occurred either after satisfying the equilibrium criterion of 0.01% weight change or, if the equilibrium criterion was not met, after one hour. The percent weight change values were calculated using Microsoft Excel®.

A short description of data set [2]: Dynamic vapor sorption (DVS) analysis. The note with it: 25° C. As for the experimental part:
as §3

A short description of data set [3]: Post-heating X-ray powder diffraction analysis (solid form stability). The note with it: heated at 80° C. for 20 minutes.
Source text: as §1, §2
A sample of Form 2 was heated at 80° C. for 20 minutes. After cooling, the sample was analyzed using x-ray powder diffraction.

The nature of data set [4]: Solubility measurements in various solvents (visual inspection of dissolution). The note with it: thermodynamic from solid. As for the experimental part:
The mass of a sample of Compound of Formula (I) was determined, and to that sample was added an aliquot of solvent, as shown in Table 5. Visual inspection was used to determine whether dissolution occurred. The solubility of Compound of Formula (I) in each solvent was calculated by dividing the weight of the sample by the total amount of solvent used to dissolve the sample. Table 6 lists the solubility of Compound of Formula (I) in each solvent.

[5] abbreviates: sample of Example 3 (synthesized by a method similar to Example 4, Form 1).
Where [6] appears, read: slurry-derived samples of Example 2.

A word on the solubility: it is the concentration that dissolves in the medium under given conditions.

Where only a bound is given, the exact number is not on record here.

Consider `NCCOCCOCCNc1ccc2c3c(cccc13)C(=O)N(CCOCCOCCN1C(=O)c3cccc4c(NCCOCCOCCN)ccc(c34)C1=O)C2=O` [Form 1, 2,2′-((ethane-1,2-diylbis(oxy))bis(ethane-2,1-diyl))bis(6-((2-(2-(2-aminoethoxy)ethoxy)ethyl)amino)-1H-benzo[de]isoquinoline-1,3(2H)-dione)], for which the “XRPD pattern after DVS cycling relative to the same sample prior to DVS analysis” value in data set [1] is given as “unchanged”. Also, in data set [2] (setting [5]), the “DVS weight gain when cycling from 5% to 95% relative humidity” value (shortened to “DVS weight gain … to 95% relative humidity”) was 16.36%, the “DVS weight loss upon drying at 5% relative humidity” value turned out to be 0.66% and the “DVS weight loss when cycling from 95% to 5% relative humidity” value (from here on “DVS weight loss … to 5% relative humidity”) worked out at 15.51%. In data set [2] (setting [6]), the “DVS weight gain … to 95% relative humidity” value worked out at 13.04%, the “DVS weight loss upon drying at 5% relative humidity” value worked out at 0.6% and the “DVS weight loss … to 5% relative humidity” value is recorded as 13.12%.

For `NCCOCCOCCNc1ccc2c3c(cccc13)C(=O)N(CCOCCOCCN1C(=O)c3cccc4c(NCCOCCOCCN)ccc(c34)C1=O)C2=O` [Form 2, 2,2′-((ethane-1,2-diylbis(oxy))bis(ethane-2,1-diyl))bis(6-((2-(2-(2-aminoethoxy)ethoxy)ethyl)amino)-1H-benzo[de]isoquinoline-1,3(2H)-dione)], the “XRPD pattern after heating relative to the same sample before” value in data set [3] is listed as “less crystalline”. Further, the “XRPD pattern after DVS cycling relative to the same sample prior to DVS analysis” value in data set [1] was “less crystalline”. In data set [2] (setting [6]), the “DVS weight gain … to 95% relative humidity” value amounted to 7.2%, the “DVS weight loss upon drying at 5% relative humidity” value came out at 1.44% and the “DVS weight loss … to 5% relative humidity” value is reported as 14.63%.

For `NCCOCCOCCNc1ccc2c3c(cccc13)C(=O)N(CCOCCOCCN1C(=O)c3cccc4c(NCCOCCOCCN)ccc(c34)C1=O)C2=O` [Compound of Formula (I), 2,2′-((ethane-1,2-diylbis(oxy))bis(ethane-2,1-diyl))bis(6-((2-(2-(2-aminoethoxy)ethoxy)ethyl)amino)-1H-benzo[de]isoquinoline-1,3(2H)-dione)], the solubility is 18000 µg/mL in data set [4] (1,1,1,3,3,3-hexafluoro-2-propanol (HFIPA), organic solvent or mixture); < 1000 µg/mL in data set [4] (1,4-dioxane, organic solvent or mixture); 18000 µg/mL in data set [4] (2,2,2-trifluoroethanol (TFE), organic solvent or mixture); < 1000 µg/mL in data set [4] (2-methyl tetrahydrofuran (2-MeTHF), organic solvent or mixture); < 1000 µg/mL in data set [4] (N,N-dimethylformamide (DMF), organic solvent or mixture, N,N-dinnethylformamide (DMF)); < 1000 µg/mL in data set [4] (acetone, organic solvent or mixture). The solubility in data set [4] (acetone/water (95/5, v/v), organic solvent or mixture) is < 1000 µg/mL; in data set [4] (acetonitrile/water (95/5, v/v), organic solvent or mixture) it was < 1000 µg/mL; in data set [4] (dichloromethane (DCM), organic solvent or mixture), < 1000 µg/mL; in data set [4] (dimethylsulfoxide (DMSO), organic solvent or mixture), < 1000 µg/mL; in data set [4] (ethanol/water (95/5, v/v), organic solvent or mixture), < 1000 µg/mL; in data set [4] (methyl ethyl ketone (MEK), organic solvent or mixture), < 1000 µg/mL. Also, the solubility in data set [4] (organic solvent or mixture, 2-propanol (2-PrOH)) was < 1000 µg/mL; in data set [4] (organic solvent or mixture, acetonitrile (CAN)), < 1000 µg/mL; in data set [4] (organic solvent or mixture, diethyl ether (Et2O)), < 1000 µg/mL; in data set [4] (organic solvent or mixture, ethanol (EtOH)) it was < 1000 µg/mL; in data set [4] (organic solvent or mixture, ethyl acetate (EtOAc)), < 1000 µg/mL; in data set [4] (organic solvent or mixture, methanol (MeOH)) it was < 1000 µg/mL. Also, the solubility is < 1000 µg/mL in data set [4] (tetrahydrofuran (THF), organic solvent or mixture); < 1000 µg/mL in data set [4] (tetrahydrofuran/water (95/5, v/v), organic solvent or mixture); < 1000 µg/mL in data set [4] (toluene, organic solvent or mixture); < 1000 µg/mL in data set [4] (water). In data set [1], the “XRPD pattern after DVS cycling relative to the same sample prior to DVS analysis” value was “unchanged”. In addition, the “DVS weight gain … to 95% relative humidity” value in data set [2] (setting [5]) is reported as 16.36%. Moreover, the “DVS weight loss upon drying at 5% relative humidity” value in data set [2] (setting [5]) was 0.66%. Also, the “DVS weight loss … to 5% relative humidity” value in data set [2] (setting [5]) came out at 15.51%.
